Calls of active or inactive are those of the source. The rule behind the calls is not given here.
Legend:
[1] = test system: Mycobacterium tuberculosis; experiment: Inhibition of siderophore production in Mycobacterium bovis BCG at 250 to 1000 mM incubated for 15 days by universal CAS assay; assay type: functional, organism-based; conditions: variant bovis BCG
[2] = test system: Mycobacterium tuberculosis; experiment: Inhibition of myco-bactins production in Mycobacterium bovis BCG at 250 to 1000 mM by universal CAS assay; assay type: functional, organism-based; conditions: variant bovis BCG

Structure (SMILES): N#Cc1cccc(-c2ccc(C(=O)O)o2)c1
- inhibition [1]: Active
- inhibition [2]: Active

Reference: ChEMBL document CHEMBL4616680, “Shedding X-ray Light on the Role of Magnesium in the Activity of Mycobacterium tuberculosis Salicylate Synthase (MbtI) for Drug Design” (J Med Chem, 2020)
